{"source": "patent US20200016136A1", "about": "(VIIV HEALTHCARE UK (NO. 5) LIMITED, priority 2017, published 2020)"}
{"test_system": "NL-RLuc virus (recombinant NL4-3 HIV with Renilla Luciferase gene)", "experiment": "Inhibition of HIV replication (NL-RLuc virus in MT-2 cells, luciferase readout)", "assay_type": "cell-based, Human immunodeficiency virus (HIV)", "settings": "MT2, 120 h", "outline": "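EC50 derived via median effect equation from at least 2 experiments, using luciferase expression as virus-growth readout. Replication-competent NL-RLuc reporter virus (nef partly replaced by Renilla luciferase) infected MT-2 cells with serial compound dilutions; 5-day incubation in RPMI 1640 plus 10% FBS.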", "units": {"EC50": "nM"}}
{"smiles": "COc1ncccc1-c1cc(C)nc(N2CCc3cc(-c4c(C)nc(C)c([C@H](OC(C)(C)C)C(=O)O)c4N4CCC(C)(C)CC4)ccc3C2)n1", "note": "[Example 106, (S)-2-(tert-Butoxy)-2-(4-(4,4-dimethylpiperidin-1-yl)-5-(2-(4-(2-methoxypyridin-3-yl)-6-methylpyrimidin-2-yl)-1,2,3,4-tetrahydroisoquinolin-6-yl)-2,6-dimethylpyridin-3-yl)acetic Acid]", "EC50": 8}
{"smiles": "Cc1cccc(Cl)c1CN1CCc2cc(-c3c(NCCCN4CCCCC4)nc(C)c([C@H](OC(C)(C)C)C(=O)O)c3N3CCC(C)(C)CC3)ccc2C1", "note": "[Example 10, (S)-2-(tert-Butoxy)-2-(5-(2-(2-chloro-6-methylbenzyl)-1,2,3,4-tetrahydroisoquinolin-6-yl)-4-(4,4-dimethylpiperidin-1-yl)-2-methyl-6-((3-(piperidin-1-yl)propyl)amino)pyridin-3-yl)acetic Acid]", "EC50": 2}
{"smiles": "Cc1nc(C)c([C@H](OC(C)(C)C)C(=O)O)c(N2CCC(C)(C)CC2)c1-c1ccc2c(c1)CCN(c1nccc(O)n1)C2", "note": "[Example 80, (S)-2-(tert-Butoxy)-2-(4-(4,4-dimethylpiperidin-1-yl)-5-(2-(4-hydroxypyrimidin-2-yl)-1,2,3,4-tetrahydroisoquinolin-6-yl)-2,6-dimethylpyridin-3-yl)acetic Acid]", "EC50": 380}
{"smiles": "Cc1ncc(-c2ccc3c(c2)CCN(c2ncnc4c2oc2ncccc24)C3)c(N2CCC(C)(C)CC2)c1[C@H](OC(C)(C)C)C(=O)O", "note": "[Example 48, (2S)-2-(tert-Butoxy)-2-[4-(4,4-dimethylpiperidin-1-yl)-2-methyl-5-(2-{8-oxa-3,5,10-triazatricyclo[7.4.0.0^2,7]trideca-1(9),2,4,6,10,12-hexaen-6-yl}-1,2,3,4-tetrahydroisoquinolin-6-yl)pyridin-3-yl]acetic Acid]", "EC50": 0.6}
{"smiles": "Cc1nc(C)c([C@H](OC(C)(C)C)C(=O)O)c(N2CCC(C)(C)CC2)c1-c1ccc2c(c1)CCN(c1cnnc(N3CCOCC3)c1)C2", "note": "[Example 73, (S)-2-(tert-Butoxy)-2-(4-(4,4-dimethylpiperidin-1-yl)-2,6-dimethyl-5-(2-(6-morpholinopyridazin-4-yl)-1,2,3,4-tetrahydroisoquinolin-6-yl)pyridin-3-yl)acetic Acid]", "EC50": 69}
{"smiles": "CC1(C)CCN(c2c(-c3ccc4c(c3)CCN(c3ncnc5c3oc3ncccc35)C4)c(CO)nc(Cl)c2[C@H](OC(C)(C)C)C(=O)O)CC1", "note": "[Example 115, (S)-2-(tert-Butoxy)-2-(2-chloro-4-(4,4-dimethylpiperidin-1-yl)-6-(hydroxymethyl)-5-(2-(pyrido[3′,2′:4,5]furo[3,2-d]pyrimidin-4-yl)-1,2,3,4-tetrahydroisoquinolin-6-yl)pyridin-3-yl)acetic Acid]", "EC50": 1}
{"smiles": "CCOc1cc(N2CCc3cc(-c4c(C)nc(C)c([C@H](OC(C)(C)C)C(=O)O)c4N4CCC(C)(C)CC4)ccc3C2)nc(C)n1", "note": "[Example 65, (S)-2-(tert-Butoxy)-2-(4-(4,4-dimethylpiperidin-1-yl)-5-(2-(6-ethoxy-2-methylpyrimidin-4-yl)-1,2,3,4-tetrahydroisoquinolin-6-yl)-2,6-dimethylpyridin-3-yl)acetic Acid]", "EC50": 19}
{"smiles": "Cc1nc(C)c([C@H](OC(C)(C)C)C(=O)O)c(N2CCC(C)(C)CC2)c1-c1ccc2c(c1)CCN(c1ccnc(N3CCC(CCO)CC3)n1)C2", "note": "[Example 144, (S)-2-(tert-Butoxy)-2-(4-(4,4-dimethylpiperidin-1-yl)-5-(2-(2-(4-(2-hydroxyethyl)piperidin-1-yl)pyrimidin-4-yl)-1,2,3,4-tetrahydroisoquinolin-6-yl)-2,6-dimethylpyridin-3-yl)acetic Acid]", "EC50": 3}
{"smiles": "CC1(C)CCN(c2c(-c3ccc4c(c3)CCN(c3nccc(N5CCOCC5)n3)C4)cnc(Cl)c2[C@H](OC(C)(C)C)C(=O)O)CC1", "note": "[Example 148, (S)-2-(tert-Butoxy)-2-(2-chloro-4-(4,4-dimethylpiperidin-1-yl)-5-(2-(4-morpholinopyrimidin-2-yl)-1,2,3,4-tetrahydroisoquinolin-6-yl)pyridin-3-yl)acetic Acid]", "EC50": 0.2}
{"smiles": "Cc1nc(C)c([C@H](OC(C)(C)C)C(=O)O)c(N2CCC(C)(C)CC2)c1-c1ccc2c(c1)CCN(c1cccc(N3CCOCC3)n1)C2", "note": "[Example 66, (S)-2-(tert-Butoxy)-2-(4-(4,4-dimethylpiperidin-1-yl)-2,6-dimethyl-5-(2-(6-morpholinopyridin-2-yl)-1,2,3,4-tetrahydroisoquinolin-6-yl)pyridin-3-yl)acetic Acid]", "EC50": 13}
{"smiles": "Cc1cc(F)ccc1CN1CCc2cc(-c3c(N)nc(Cl)c([C@H](OC(C)(C)C)C(=O)O)c3N3CCC(C)(C)CC3)ccc2C1", "note": "[Example 99, (S)-2-(6-Amino-2-chloro-4-(4,4-dimethylpiperidin-1-yl)-5-(2-(4-fluoro-2-methylbenzyl)-1,2,3,4-tetrahydroisoquinolin-6-yl)pyridin-3-yl)-2-(tert-butoxy)acetic Acid]", "EC50": 4}
{"smiles": "Cc1nc(NC2CCN(C)CC2)c(-c2ccc3c(c2)CCN(c2ncnc4c2oc2ccccc24)C3)c(N2CCC(C)(C)CC2)c1[C@H](OC(C)(C)C)C(=O)O", "note": "[Example 12, (S)-2-(5-(2-(Benzofuro[3,2-d]pyrimidin-4-yl)-1,2,3,4-tetrahydroisoquinolin-6-yl)-4-(4,4-dimethylpiperidin-1-yl)-2-methyl-6-((1-methylpiperidin-4-yl)amino)pyridin-3-yl)-2-(tert-butoxy)acetic Acid]", "EC50": 1}
{"smiles": "Cc1cccc(Cl)c1CN1CCc2cc(-c3c(C(=O)O)nc(C)c([C@H](OC(C)(C)C)C(=O)O)c3N3CCC(C)(C)CC3)ccc2C1", "note": "[Example 116, (S)-5-(tert-Butoxy(carboxy)methyl)-3-(2-(2-chloro-6-methylbenzyl)-1,2,3,4-tetrahydroisoquinolin-6-yl)-4-(4,4-dimethylpiperidin-1-yl)-6-methylpicolinic Acid]", "EC50": 4}
{"smiles": "CC1(C)CCN(c2c(-c3ccc4c(c3)CCN(c3nccc(-c5cccnc5)n3)C4)c(N)nc(Cl)c2[C@H](OC(C)(C)C)C(=O)O)CC1", "note": "[Example 101, (S)-2-(6-Amino-2-chloro-4-(4,4-dimethylpiperidin-1-yl)-5-(2-(4-(pyridin-3-yl)pyrimidin-2-yl)-1,2,3,4-tetrahydroisoquinolin-6-yl)pyridin-3-yl)-2-(tert-butoxy)acetic Acid]", "EC50": 2}
{"smiles": "Cc1nc(C)c([C@H](OC(C)(C)C)C(=O)O)c(N2CCC(C)(C)CC2)c1-c1ccc2c(c1)CCN(c1cc(N3CCC(N4CCN(C)CC4)CC3)ncn1)C2", "note": "[Example 136, (S)-2-(tert-Butoxy)-2-(4-(4,4-dimethylpiperidin-1-yl)-2,6-dimethyl-5-(2-(6-(4-(4-methylpiperazin-1-yl)piperidin-1-yl)pyrimidin-4-yl)-1,2,3,4-tetrahydroisoquinolin-6-yl)pyridin-3-yl)acetic Acid]", "EC50": 16}
{"smiles": "Cc1nc(C)c([C@H](OC(C)(C)C)C(=O)O)c(N2CCC(C)(C)CC2)c1-c1ccc2c(c1)CCN(c1nccc(N3C[C@@H](C)N(C)[C@@H](C)C3)n1)C2", "note": "[Example 41, (2S)-2-(tert-Butoxy)-2-[4-(4,4-dimethylpiperidin-1-yl)-2,6-dimethyl-5-(2-{4-[(3R,5S)-3,4,5-trimethylpiperazin-1-yl]pyrimidin-2-yl}-1,2,3,4-tetrahydroisoquinolin-6-yl)pyridin-3-yl]acetic Acid]", "EC50": 3}
{"smiles": "COc1cccc(-c2cc(N3CCc4cc(-c5c(C)nc(C)c([C@H](OC(C)(C)C)C(=O)O)c5N5CCC(C)(C)CC5)ccc4C3)ncn2)c1", "note": "[Example 79, (S)-2-(tert-Butoxy)-2-(4-(4,4-dimethylpiperidin-1-yl)-5-(2-(6-(3-methoxyphenyl)pyrimidin-4-yl)-1,2,3,4-tetrahydroisoquinolin-6-yl)-2,6-dimethylpyridin-3-yl)acetic Acid]", "EC50": 11}
{"smiles": "Cc1nc(C)c([C@H](OC(C)(C)C)C(=O)O)c(N2CCC(C)(C)CC2)c1-c1ccc2c(c1)CCN(c1cc(N3CCOCC3)ccn1)C2", "note": "[Example 83, (S)-2-(tert-Butoxy)-2-(4-(4,4-dimethylpiperidin-1-yl)-2,6-dimethyl-5-(2-(4-morpholinopyridin-2-yl)-1,2,3,4-tetrahydroisoquinolin-6-yl)pyridin-3-yl)acetic Acid]", "EC50": 5}
{"smiles": "Cc1nc(C)c([C@H](OC(C)(C)C)C(=O)O)c(N2CCC(C)(C)CC2)c1-c1ccc2c(c1)CCN(c1nccc(N3CCN(CCO)CC3)n1)C2", "note": "[Example 69, (S)-2-(tert-Butoxy)-2-(4-(4,4-dimethylpiperidin-1-yl)-5-(2-(4-(4-(2-hydroxyethyl)piperazin-1-yl)pyrimidin-2-yl)-1,2,3,4-tetrahydroisoquinolin-6-yl)-2,6-dimethylpyridin-3-yl)acetic Acid]", "EC50": 18}
{"smiles": "COc1c(N2CCOCC2)ncnc1N1CCc2cc(-c3c(C)nc(C)c([C@H](OC(C)(C)C)C(=O)O)c3N3CCC(C)(C)CC3)ccc2C1", "note": "[Example 67, (S)-2-(tert-Butoxy)-2-(4-(4,4-dimethylpiperidin-1-yl)-5-(2-(5-methoxy-6-morpholinopyrimidin-4-yl)-1,2,3,4-tetrahydroisoquinolin-6-yl)-2,6-dimethylpyridin-3-yl)acetic Acid]", "EC50": 2}
{"smiles": "Cc1cccc(Cl)c1CN1CCc2cc(-c3c(CNCCCCCc4ccccc4)nc(C)c([C@H](OC(C)(C)C)C(=O)O)c3N3CCC(C)(C)CC3)ccc2C1", "note": "[Example 156, (S)-2-(tert-Butoxy)-2-(5-(2-(2-chloro-6-methylbenzyl)-1,2,3,4-tetrahydroisoquinolin-6-yl)-4-(4,4-dimethylpiperidin-1-yl)-2-methyl-6-(((5-phenylpentyl)amino)methyl)pyridin-3-yl)acetic Acid]", "EC50": 65}
{"smiles": "Cc1nc(C)c([C@H](OC(C)(C)C)C(=O)O)c(N2CCC(C)(C)CC2)c1-c1ccc2c(c1)CCN(Cc1ccccc1)C2", "note": "[Example 52, (2S)-2-[5-(2-Benzyl-1,2,3,4-tetrahydroisoquinolin-6-yl)-4-(4,4-dimethylpiperidin-1-yl)-2,6-dimethylpyridin-3-yl]-2-(tert-butoxy)acetic Acid]", "EC50": 3}
